The values that follow come from US20160311795A1, “PYRIMIDINE DIAMINE DERIVATIVES AS INHIBITORS OF CYTOSOLIC HSP90” (CALASIA PHARMACEUTICALS, INC., priority 2012, published 2016).

The target of one experiment is T1, human full length Hsp90 (Homo sapiens, UniProt P07900).
T1 construct: amino acid residues 1 to 732 of human Hsp90 (GenBank: BC121062.2); made in house; host or cells: E. coli BL21DE3 (pET15b)
Briefly: Fluorescence polarization Hsp90 competitive binding assay (GM-FITC displacement). As for the experimental part:
Hsp90 binding assays was performed generally according to the procedure described in J. Biomol. […] Hsp90 inhibitors were solubilized in DMSO at a stock concentration of 50 mM. […] Eighty five μl of binding assay buffer (20 mM HEPES, pH-7.5, 50 mM KCl, 5 mM MgCl2, 20 mM sodium molybdate, 0.01% NP-40, 2 mM DTT, and 0.1 mg/ml BSA) was added to the wells of a 96 well black plate placed on ice. […] Next, 10 μl either binding assay buffer alone (control) or human full length Hsp90 protein diluted in the binding assay buffer was added to achieve a final concentration of 50 nM. The plates were incubated at 4° C. on a plate shaker for 24 h. Two μl of 50× GM-FITC (9 nM final) in DMSO was added to all wells and the plate was incubated at ambient temperature for 1 h with shaking. Fluorescence polarization readings were taken in duplicate at excitation and emission wavelengths of 480 nm and 500 nm respectively. Specific binding was calculated by subtracting polarization values in the presence of Hsp90 from those in the absence of Hsp90. To calculate percent inhibition the specific binding values obtained for GA-FITC in the presence of compound were compared to values for GA-FITC in the absence of compound (DMSO only).
A general note: Fluorescence polarisation rises when a labelled molecule tumbles more slowly, as on binding a larger partner.

A further experiment relates to U251MG. Put plainly: Cell viability / efficacy in GBM cells. Type of experiment: cell-based, human. As for the experimental part: (§1) The effect of SBI-0640725 on cell viability was determined by measuring cellular dehydrogenase activity (U251MG and MBA-MD-231 cells) or by measuring ADP levels (HepG2) after treating cells for 72 hours with increasing concentrations of SBI-0640725. To measure dehydrogenase activity, CCK-8 kit reagent (Dojindo) was added to the wells and incubated for 2 hours, after which absorbance was measured at 450 nm using a Synergy HT micro-titer plate reader (Biotek). To measure ADP levels, ADP-GLO reagent (Life Technologies) was added to the wells, and luminescence was measured after a 30 minute incubation using a POLARstar Omega micro-titer plate reader (BMG).
(§2) The table below summarizes efficacy of SBI-0640725 in various cancer cell lines, including U251MG, MDA-MB-231, and HepG2, using ADP-GLO assay described above. As used herein “efficacy” (EC50) is the concentration of a compound that produces half-maximal response in a cellular assay.

Experiment [1] concerns U251MG cells. Put plainly: Mitochondrial stress response, oxygen consumption rate (OCR). In kind it is cell-based, human. The conditions noted are these: FCCP as inducer of stress. The procedure: In further experiments, the effect of SBI-0640725 on mitochondrial stress response in U251MG cells was determined by measuring the mitochondrial oxygen consumption rate (OCR). The OCR was measured in real time, both before, and after treating U251 MG cells with increasing concentrations of SBI-0640725. The time of compound addition is indicated in FIG. 15A by the vertical line labeled D. Mitochondrial bioenergetics stress was determined by treating the cells sequentially with 0.125 mg/ml oligomycin (OA; vertical line O), […] carbonyl cyanide-4-(trifluoromethoxy)phenylhydrazone (FCCP; vertical line F) and […] rotenone (vertical line R) while continuing OCR measurement. Oligomycin (OA) generates mitochondrial stress by inhibiting ATP synthase and FCCP uncouples mitochondrial oxidative phosphorylation. The OCR data shown in FIG. 15A is presented in FIG. 15B after normalization using cell protein concentration, and subtracting extra-mitochondrial respiration, as determined by the respiration observed upon addition of rotenone. These experiments tested whether SBI-0640725 could inhibit the ability of mitochondria to compensate for these stressors. […] FCCP dissipates the electrochemical gradient that drives ATP synthesis. Thus, in order to maintain the membrane potential, mitochondria needs to increase the flow of electrons, thereby reflecting an increase in the OCR.

The subject of experiment [2] is Caspase 3/7 activity in HepG2 cells. Put plainly: Cellular Caspase-3/7 luminescence assay. To be noted: HepG2, 72 hours. Type of experiment: cell-based. The procedure:
(§3) Further, the effect of SBI-0640725 on cellular caspase levels was also quantitated in U251MG, MBA-MD-231 and HepG2 cells. Each cell type was treated with increasing concentrations of SBI-0640725 for 72 hours. Quantification of total cellular Caspase-3 and 7 activity was accomplished using a Caspase-3/7 luminescence assay kit (Promega) according to the manufacturer's recommendations, and analyzed with a POLARstar Omega micro-titer plate reader (BMG). […] Caspase activity is a marker for apoptotic cell death.

For experiment [3], the system named is Caspase 3/7 activity in MBA-MD-231 cells. Put plainly: Cellular Caspase-3/7 luminescence assay. In kind it is cell-based. The conditions noted are these: MBA-MD-231, 72 hours. The procedure: as §3
The subject of another experiment is R127. Briefly: Efficacy in ovarian cancer cells, ADP-GLO. In kind it is cell-based. As for the experimental part:
as §1, §2
Background: ADP-Glo turns the ADP formed in a reaction into a luminescent signal.

In another experiment the test system is R182. Put plainly: Efficacy in ovarian cancer cells, ADP-GLO. Type of experiment: cell-based. As for the experimental part:
as §1, §2

For experiment [4], the system named is U251MG cells. Briefly: Mitochondrial integrity in cells, TMRE fluorescence. In kind it is cell-based, human. To be noted: 48 hours. As for the experimental part: Additional experiments were performed to determine the effect of SBI-0640725 on mitochondrial integrity. U251MG cells were treated with tetramethylrhodamine ethyl ester (TMRE), and fluorescence was visualized using fluorescence confocal microscopy (FIG. 16 panel A), or quantitated using a fluorimeter (FIG. 16 panel B) after cells had been treated with increasing concentrations of SBI-0640725 for 48 hours. […] In experiments using isolated mitochondria, mitochondrial membrane potential was determined as a measure of mitochondrial integrity. TMRE-loaded mitochondria isolated from U251MG cells were treated with either 10 μM (left bar of the pair in FIG. 17) or 2 μM (right bar of the pair in FIG. 17) SBI-0640725 while continually monitoring changes in fluorescence intensity at 30° C.

Where [5] appears, read: IC50, inhibition of Hsp90 activity, FIG. 7 concentration response.
The mark [6] stands for this setting: Table 1, 50 nM Hsp90, 9 nM GM-FITC, read-out: Biochemical Potency IC50.
Where [7] appears, read: Table II, binding affinities ranked by potency.
Setting [8] is: Table II, binding affinities ranked by potency, read-out: IC50.

Where two headings read alike, the source gives them in different places.

In the case of `COc1c(C)cnc(CN(CCc2ccccc2)c2cc(Cl)nc(N)n2)c1C` [SBI-0639353, 6-Chloro-N4-((4-methoxy-3,5-dimethylpyridin-2-yl)methyl)-N4-phenethylpyrimidine-2,4-diamine], the IC50 (in general, the concentration that gives 50% inhibition) on human full length Hsp90 (setting [5]) is 255 nM; on human full length Hsp90 (setting [6]) it was 255 nM; on human full length Hsp90 (setting [8]) it was 255 nM; on human full length Hsp90 (assay validation / precision runs, read-out: IC50), 255 to 308 nM. Besides, the affinity on human full length Hsp90 (setting [7]) corresponds to a Ki of 64 nM.

As to `COc1c(C)cnc(CN(CCc2ccc(F)cc2)c2cc(Cl)nc(N)n2)c1C` [SBI-0640725], the 50% inhibitory concentration (IC50) on human full length Hsp90 (setting [5]), on human full length Hsp90 (setting [6]) and on human full length Hsp90 (setting [8]) was 101 nM throughout. For the same compound, the Ki – broadly, a dissociation constant, usually derived from enzyme kinetics or from competition with a known ligand – at human full length Hsp90 (setting [7]) was 25 nM. Further, in the experiment with U251MG (72 hours, dehydrogenase activity (CCK-8)), the cell viability entry is given as “reduction in cell viability”. The EC50 (in general, the concentration at which the effect is half-maximal) was 880 nM in the experiment with U251MG (Homo sapiens, U-251, GBM, ADP-GLO); 410 nM in the experiment with R127; 690 nM with R182. In the experiment with U251MG cells [1], the “mitochondrial stress response (OCR)” value is given as “significantly inhibit the ability of mitochondria to compensate for stress”. The “Caspase 3/7 activity” value in experiment [2] and in experiment [3] was “increase in Caspase 3/7 activity” throughout. Moreover, the “mitochondrial integrity (retention of de-esterified TMRE)” value in the experiment on U251MG cells [4] is on record as “decrease proportionately with increasing concentrations”.
